Experiments:
Experiment in all cases: relative viability (nuclei count vs DMSO), 5 days (fraction); higher = more cells survive
AZ628 + Linsitinib = compound: CC1=C(C=C(C=C1)NC(=O)C2=CC(=CC=C2)C(C)(C)C#N)NC3=CC4=C(C=C3)N=CN(C4=O)C [AZ628] + C[C@]1(O)C[C@@H](c2nc(-c3ccc4ccc(-c5ccccc5)nc4c3)c3c(N)nccn32)C1 [Linsitinib] (partner 1 µM)
How it was run: (§1)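 Relative viability equals treated-well nuclei counts divided by vehicle-well nuclei counts. Counts came from 4× images of lung cancer cell lines grown in 1536-well plates for 5 days after pin-tool dosing on the day after seeding. Dosing used one drug alone or a fixed anchor-drug dose plus five library-drug doses (not always all listed) in √10 steps, and values are medians of duplicate plates.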

[1] = compound: C[As](C)SC[C@H](NC(=O)CC[C@H](N)C(=O)O)C(=O)NCC(=O)O [Darinaparsin] + CC(=O)Nc1cccc(-n2c(=O)n(C3CC3)c(=O)c3c(Nc4ccc(I)cc4F)n(C)c(=O)c(C)c32)c1 [Trametinib] (partner 0.02 µM)
How it was run: as §1

[2] = compound: C[As](C)SC[C@H](NC(=O)CC[C@H](N)C(=O)O)C(=O)NCC(=O)O [Darinaparsin] + N=C(N)NC(=N)NCCc1ccccc1 [Phenformin] (partner 250 µM)
How it was run: as §1

AZ628 + Alpelisib = compound: CC1=C(C=C(C=C1)NC(=O)C2=CC(=CC=C2)C(C)(C)C#N)NC3=CC4=C(C=C3)N=CN(C4=O)C [AZ628] + Cc1nc(NC(=O)N2CCC[C@H]2C(N)=O)sc1-c1ccnc(C(C)(C)C(F)(F)F)c1 [Alpelisib] (partner 2 µM)
How it was run: as §1

## LCLC-97TM1
AZ628 + Linsitinib; first compound 0.08 µM
  relative viability: 0.212
AZ628 + Linsitinib; first compound 0.253 µM
  relative viability: 0.24
AZ628 + Linsitinib; first compound 0.8 µM
  relative viability: 0.179
AZ628 + Linsitinib; first compound 2.53 µM
  relative viability: 0.202
AZ628 + Linsitinib; first compound 8 µM
  relative viability: 0.136
[1]; first compound 0.08 µM
  relative viability: 0.264
[1]; first compound 0.8 µM
  relative viability: 0.237
[1]; first compound 2.53 µM
  relative viability: 0.204
[1]; first compound 8 µM
  relative viability: 0.225
[2]; first compound 0.08 µM
  relative viability: 0.417
[2]; first compound 0.8 µM
  relative viability: 0.412
[2]; first compound 2.53 µM
  relative viability: 0.444
[2]; first compound 8 µM
  relative viability: 0.302
AZ628 + Alpelisib; first compound 0.08 µM
  relative viability: 0.279
AZ628 + Alpelisib; first compound 0.253 µM
  relative viability: 0.205
AZ628 + Alpelisib; first compound 0.8 µM
  relative viability: 0.195
AZ628 + Alpelisib; first compound 2.53 µM
  relative viability: 0.232
AZ628 + Alpelisib; first compound 8 µM
  relative viability: 0.118
